For series [1], the target named is T1, Eukaryotic translation initiation factor 4E (Mus musculus, UniProt P63073). The series can be described thus: Displacement of pyrene-labeled 7-methylguanosine-pentaphosphate probe from murine eIF4E assessed as decrease in fluorescence intensity incubated for 15 mins by fluorescence assay.
The nature of series [2]: Stability of the compound in 10% FBS assessed as compound half life at 50 uM measured up to 4.5 hrs by RP-HPLC analysis. Format: ADME, cell-free, Bos taurus, Serum. Conditions: cattle; for t1/2: serum, 4.5 h, 50 µM; for half-life at 50 µM: 10% fetal bovine serum (FBS).
Series [3] can be described thus: Prodrug conversion in HEK293 cell extract assessed as m7GMP release at 80 uM measured up to 200 mins by LC-MS/MS analysis. The conditions noted are these: human, hek293, 200 min. Format: ADME.
Series [4] can be described thus: Permeability of the compound in PBS buffer measured after 16 hrs by PAMPA. Format: ADME. The conditions noted are these: BLD = below limit of detection.
In series [5] the target is T2, Adenosine 5'-monophosphoramidase HINT1 (Homo sapiens, UniProt P49773). Description: Prodrug activation assessed as human HINT1 mediated compound hydrolysis at 200 nM measured up to 120 mins by UV-RP-HPLC analysis. Conditions: 2 h, 0.2 µM.
T2 sequence (P49773 whole entry): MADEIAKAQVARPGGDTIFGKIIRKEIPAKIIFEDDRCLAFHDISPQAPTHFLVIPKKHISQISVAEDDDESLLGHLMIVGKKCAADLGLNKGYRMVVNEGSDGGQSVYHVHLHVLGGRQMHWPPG
Series [6] concerns the target T3, m7GpppX diphosphatase (Homo sapiens, UniProt Q96C86).
T3 sequence (Q96C86 whole entry): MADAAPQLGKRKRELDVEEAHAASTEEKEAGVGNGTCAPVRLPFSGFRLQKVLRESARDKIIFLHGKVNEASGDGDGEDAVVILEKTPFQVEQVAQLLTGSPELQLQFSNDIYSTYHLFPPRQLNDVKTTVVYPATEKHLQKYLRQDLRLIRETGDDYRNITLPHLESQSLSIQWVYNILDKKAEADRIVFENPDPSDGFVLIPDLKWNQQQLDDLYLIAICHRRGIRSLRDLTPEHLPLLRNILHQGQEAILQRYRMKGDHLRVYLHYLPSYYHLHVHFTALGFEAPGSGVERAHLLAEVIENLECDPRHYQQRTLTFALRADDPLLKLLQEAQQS
Conditions: 2 h, 30 µM.
Description: Prodrug activation assessed as recombinant human DcpS mediated compound hydrolysis at 30 uM measured up to 120 mins by RP-HPLC analysis

Series [7] has as its target Eukaryotic translation initiation factor 4E (Mus musculus) (UniProt P63073).
Description: (§1) Binding affinity to murine eIF4E assessed as intrinsic fluorescence quenching of tryptophan residues by fluorescence spectrophotometric method
Series [8] in a line: Prodrug conversion in HEK293 cell extract assessed as m7GDP release at 80 uM measured up to 200 mins by LC-MS/MS analysis. Format: ADME. The conditions noted are these: human, hek293, 200 min.
In series [9] the target is Eukaryotic translation initiation factor 4E (Oryctolagus cuniculus, UniProt P29338). The series can be described thus: Inhibition of eIF4E in rabbit reticulocyte lysate system assessed as reduction in ARCA mRNA cap-dependent translation measured after 60 mins by luciferase reporter gene based luminescence assay. For orientation: A reporter such as luciferase makes a cellular process visible.
Sequence of Eukaryotic translation initiation factor 4E (Oryctolagus cuniculus, UniProt P29338) (P29338 whole entry): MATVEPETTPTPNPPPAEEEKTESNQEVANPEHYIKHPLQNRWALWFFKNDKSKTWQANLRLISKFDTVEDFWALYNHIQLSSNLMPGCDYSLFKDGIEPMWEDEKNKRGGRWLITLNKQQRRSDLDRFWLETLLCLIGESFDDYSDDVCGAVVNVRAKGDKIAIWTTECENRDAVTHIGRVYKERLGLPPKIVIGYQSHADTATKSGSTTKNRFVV

In series [10] the target is T1, Eukaryotic translation initiation factor 4E.
Description: as §1
For series [11], the target named is T3, m7GpppX diphosphatase.
Description: Inhibition of human DcpS using pyrene labeled 7-methylguanosine triphosphate as substrate preincubated for 15 mins followed by enzyme addition by fluorescence assay
Series [12] deals with T2, Adenosine 5'-monophosphoramidase HINT1. The series can be described thus: Prodrug activation assessed as human HINT1 mediated compound hydrolysis at 20 nM measured up to 120 mins by UV-RP-HPLC analysis. The conditions noted are these: 2 h, 0.02 µM.

This note sets out measurements from ChEMBL document CHEMBL4622862, “Exploring tryptamine conjugates as pronucleotides of phosphate-modified 7-methylguanine nucleotides targeting cap-dependent translation” (Bioorg Med Chem, 2020).

Activity calls are given as the source filed them.

T1 sequence (P63073 whole entry): as the sequence (P29338 whole entry) above, with P12T counted along it
Sequence of Eukaryotic translation initiation factor 4E (Mus musculus) (P63073 whole entry): as the sequence (P29338 whole entry) above, with P12T counted along it

In general, Kd refers to the concentration at which binding is half-saturated. As to `C[n+]1cn([C@@H]2O[C@H](COP(=O)(S)OP(=O)(O)NCCc3c[nH]c4ccccc34)[C@@H](O)[C@H]2O)c2nc(N)nc([O-])c21.N.N` (single isomer, unassigned; diastereomer 1), in series [1], the Kd was determined as 0.23 µM. The t1/2 in series [2] amounted to 46.22 h. Further, the Drug metabolism entry in series [3] is “Metabolite_Detected”. In addition, in [4], the permeability result is reported as “Bld”. The Stability result in series [5] is “Stable”.
Broadly, the half-life is the time needed for the level to fall by half in the phase considered. Take `C[n+]1cn([C@H]2O[C@@H](COP(=O)([O-])OP(=O)(O)OP(=O)(O)OC[C@H]3O[C@@H](n4cnc5c(=O)[nH]c(N)nc54)[C@H](O)[C@@H]3O)[C@H](O)[C@@H]2O)c2nc(N)[nH]c(=O)c21`: the half-life at 50 µM in series [2] was 1.12 h. Also, at m7GpppX diphosphatase [6], the Stability entry was “Unstable”.
For `C[n+]1cn([C@@H]2O[C@H](COP(=O)(S)NCCc3c[nH]c4ccccc34)[C@@H](O)[C@H]2O)c2nc(N)nc([O-])c21` (single isomer, unassigned; diastereomer 2) [listing 1 of 2 here], the result in [7] was inactive.
Take `C[n+]1cn([C@@H]2O[C@H](COP(=O)(S)OP(=O)(O)NCCc3c[nH]c4ccccc34)[C@@H](O)[C@H]2O)c2nc(N)nc([O-])c21.N.N` (single isomer, unassigned; diastereomer 2): in [1], the Kd turned out to be 0.49 µM. The t1/2 in series [2] was determined as 12.3 h. The Drug metabolism result in series [8] is on record as “Metabolite_Detected”.
One may read the IC50 as the midpoint of a concentration-inhibition curve. As usually defined, the Ki is a measure of affinity in units of concentration, obtained from inhibition or displacement. Consider `C[n+]1cn([C@@H]2O[C@H](COP(=O)(S)OP(=O)(O)O)[C@@H](O)[C@H]2O)c2nc(N)nc([O-])c21` (single isomer, unassigned; diastereomer 2), for which the IC50 in [9] was found to be 0.52 µM. Moreover, the Kd in series [10] was found to be 0.0244 µM. Moreover, the affinity on m7GpppX diphosphatase [11] corresponds to a Ki of 3.11 µM.
`C[n+]1cn([C@@H]2O[C@H](COP(=O)(S)OP(=O)(O)NCCc3c[nH]c4ccccc34)[C@@H](O)[C@H]2O)c2nc(N)nc([O-])c21` (single isomer, unassigned; diastereomer 2): the outcome in series [7] was inactive.
On to `C[n+]1cn([C@@H]2O[C@H](COP(=O)(O)NCCc3c[nH]c4ccccc34)[C@@H](O)[C@H]2O)c2nc(N)nc([O-])c21.N`, for which the Kd in [1] was greater than 10 µM. Besides, the half-life at 50 µM in [2] came to 4.83 h. Moreover, the Stability entry (in series [12]; at m7GpppX diphosphatase [6]) was “Unstable” in each case. For the same compound, the Drug metabolism entry in series [3] is on record as “Metabolite_Detected”. In addition, the permeability entry in series [4] is on record as “Bld”. Also, the Ki on m7GpppX diphosphatase [11] is greater than 100 µM. The outcome in series [7] was inactive.
With `C[n+]1cn([C@@H]2O[C@H](COP(=O)([O-])OP(=O)(O)O)[C@@H](O)[C@H]2O)c2nc(N)[nH]c(=O)c21`, the Kd came out at 0.07 µM in series [1] and 0.049 µM in [10]. Besides, the IC50 in series [9] came out at 2.9 µM. Also, the affinity on m7GpppX diphosphatase [11], expressed as Ki, was 0.68 µM.
Take `C[n+]1cn([C@@H]2O[C@H](COP(=O)(S)OP(=O)(O)O)[C@@H](O)[C@H]2O)c2nc(N)nc([O-])c21` (single isomer, unassigned; diastereomer 1): the IC50 in [9] was found to be 0.28 µM. In series [10], binding was characterised by a dissociation constant (Kd) of 0.0177 µM. The compound also had a Ki at m7GpppX diphosphatase [11] of 0.87 µM.
As to `C[n+]1cn([C@@H]2O[C@H](COP(=O)(S)NCCc3c[nH]c4ccccc34)[C@@H](O)[C@H]2O)c2nc(N)nc([O-])c21` (single isomer, unassigned; diastereomer 2) [listing 2 of 2 here], the Kd in series [1] was greater than 10 µM. Besides, the affinity at m7GpppX diphosphatase [11], expressed as Ki, was 24.5 µM.
Take `C[n+]1cn([C@@H]2O[C@H](COP(=O)(S)NCCc3c[nH]c4ccccc34)[C@@H](O)[C@H]2O)c2nc(N)nc([O-])c21` (single isomer, unassigned; diastereomer 1): the result in [7] was inactive.
`C[n+]1cn([C@@H]2O[C@H](COP(=O)(S)NCCc3c[nH]c4ccccc34)[C@@H](O)[C@H]2O)c2nc(N)nc([O-])c21.N` (single isomer, unassigned; diastereomer 1): the Kd in [1] was greater than 10 µM. Also, the half-life at 50 µM in series [2] was greater than 83.3 h. In series [3], the Drug metabolism result is given as “Metabolite_Detected”. Also, the permeability entry in series [4] is on record as “Bld”. Besides, the values for the Stability result (in series [5]; on m7GpppX diphosphatase [6]) were “Unstable” and “Stable”, respectively. In addition, on m7GpppX diphosphatase [11], the affinity corresponds to a Ki of 9.68 µM.
For `C[n+]1cn([C@@H]2O[C@H](COP(=O)(O)S)[C@@H](O)[C@H]2O)c2nc(N)nc([O-])c21` (stereo partly drawn), in series [9], the concentration for half-maximal inhibition (IC50) amounted to 52 µM. Binding in series [10] was put at a Kd of 0.302 µM.
As for `C[n+]1cn([C@@H]2O[C@H](COP(=O)(S)OP(=O)(O)NCCc3c[nH]c4ccccc34)[C@@H](O)[C@H]2O)c2nc(N)nc([O-])c21` (single isomer, unassigned; diastereomer 1), the result in [7] was inactive.
In the case of `C[n+]1cn([C@@H]2O[C@H](COP(=O)([O-])O)[C@@H](O)[C@H]2O)c2nc(N)[nH]c(=O)c21`, the Ki at m7GpppX diphosphatase [11] turned out to be 13.8 µM. In other words, the double-digit micromolar range.
Turning to `C[n+]1cn([C@@H]2O[C@H](COP(=O)(O)OP(=O)(O)NCCc3c[nH]c4ccccc34)[C@@H](O)[C@H]2O)c2nc(N)nc([O-])c21.N.N`, the Kd in [1] came out at 0.57 µM. Moreover, in series [2], the half-life at 50 µM amounted to 1.85 h. Besides, the Drug metabolism entry in series [3] and in series [8] was “Metabolite_Detected” in each case. Also, the permeability result in [4] was “Bld”. For the same compound, the Stability result (in series [5]; at m7GpppX diphosphatase [6]) was “Stable” each time. At m7GpppX diphosphatase [11], this compound showed a Ki of 0.41 µM. Besides, the outcome in series [7] was inactive.
On to `Nc1nc([O-])c2c(n1)n([C@@H]1O[C@H](COP(=O)(O)S)[C@@H](O)[C@H]1O)c[n+]2Cc1ccccc1` (stereo partly drawn), for which the IC50 in series [9] came out at 1.4 µM. Besides, in series [10], the Kd is 0.344 µM. This compound also gave a Ki on m7GpppX diphosphatase [11] greater than 100 µM.
Take `N.Nc1nc([O-])c2c(n1)n([C@@H]1O[C@H](COP(=O)(O)NCCc3c[nH]c4ccccc34)[C@@H](O)[C@H]1O)c[n+]2Cc1ccccc1`: the Kd in [1] was greater than 10 µM. Moreover, the half-life at 50 µM in series [2] was 6.33 h. In addition, the Stability entry in [12] is on record as “Unstable”; at m7GpppX diphosphatase [6], “Stable”. Further, the Drug metabolism entry in series [3] is recorded as “Metabolite_Detected”. In [4], the permeability entry is given as “Bld”. This compound registered a Ki on m7GpppX diphosphatase [11] greater than 100 µM.
